Data on two compounds can be found in article PMC8296985, “A Covalent Calmodulin Inhibitor as a Tool to Study Cellular Mechanisms of K-Ras-Driven Stemness” (Frontiers in Cell and Developmental Biology, 2021).

Where two headings read alike, the source gives them in different places.

What all share (type): cell-based
Assay [1] relates to Hs 578T. Description: 3D spheroid (tumorosphere) formation assay, low attachment, serum-free, alamarBlue. To be noted: Homo sapiens. The method, then: (§1) 3D spheroid formation assays were performed in 96-well low-attachment, suspension culture plates (cat. no. 655185, Cellstar, Greiner Bio-One) under serum-free condition. About 1,000 (MDA-MB-231, NCI-H358, and MIA PaCa-2) or 2,500 (Hs 578T) cells per well were seeded in 50 μl of either an RPMI medium (cat. no. 52400-025, Gibco, Thermo Fisher Scientific) (MDA-MB-231, A375, and NCI-H358) or DMEM (cat. no. 41965-039, Gibco, Thermo Fisher Scientific) (Hs 578T and MIA PaCa-2), containing 0.5% MethoCult (cat. no. SF H4636, Stemcell technologies), 1x B27 (cat. no. 17504044, Gibco, Thermo Fisher Scientific), 25 ng/ml EGF (cat. no. E9644, Sigma-Aldrich), and 25 ng/ml FGF (cat. no. RP-8628, Thermo Fisher Scientific). Cells were cultured for 3 days and then treated with compounds or vehicle control (DMSO 0.1% v/v in growth medium) for another 3 days. The cells were supplemented with a fresh growth medium on the third day together with the drug treatment. For knockdown experiments, cells were seeded in 12-well plates and treated with either 50 nM scrambled siRNA (cat. no. 1022076, QIAGEN) or indicated concentrations of siRNAs. Next day, cells were collected by trypsinization and re-plated into 96-well plates for 3D spheroid suspension culture.
(§2) Spheroid formation efficiency was analyzed by an alamarBlue assay reagent (cat. no. DAL1100, Thermo Fisher Scientific). A 10% final volume of the alamarBlue reagent was added to each well of the plate and incubated for 4 h at 37°C. Then the fluorescence intensity was measured using the FLUOstar OPTIMA plate reader (BMG Labtech, Germany) with an excitation wavelength of 560 ± 5 nm and an emission wavelength of 590 ± 5 nm.
(§3) To quantitatively profile the drug sensitivity with a more robust parameter than the IC50 or EC50 values, the drug sensitivity score (DSS) analysis was employed. DSS values are essentially normalized area under the curve (AUC) measures of dose-response inhibition data ([Yadav et al., 2014]). Drug response data files (in Excel) ready for online analysis were prepared according to the example file obtained from the DSS pipeline website, called Breeze^1 ([Potdar et al., 2020]). Either raw fluorescence intensity measurements or normalized % inhibition data (for BRET assay analysis) were uploaded.
(§4) DSS3 was employed to emphasize drugs that obtain their response area over a relatively wide dose window, as compared to drugs that show increased response only at the higher end of the concentration range. After logistic fitting of the dose-response inhibition data, the area under the curve (AUC) was determined as the exact solution. A 10% minimal activity threshold (t) was set. The maximum (Cmax) and minimum (Cmin) concentrations were used for screening of the inhibitors, with Cmax = x2 and x1 concentration with minimal activity t.

The subject of assay [2] is MDA-MB-231. The description is as above. The settings on record: for IC50: Homo sapiens; for KRAS/HRAS mutant cell line DSS3 ratio: MDA-MB-231 vs Hs 578T 3D spheroid formation, 0.6–40 μM, numbers above bars Fig. 1A,B. The method, then: as §1, §2, §3, §4
For assay [3], the system named is K-RasG12V. Description: K-RasG12V nanoclustering-BRET assay in HEK293-EBNA cells. How it is done: BRET assays were essentially performed as described by others ([Lavoie et al., 2013]; [Bery et al., 2018]). About 100,00–150,000 HEK293-EBNA ([Meissner et al., 2001]) cells were seeded per well of a 12-well plate in 1 ml of DMEM containing 10% FBS and 2 mM L-glutamine and were grown for 24 h. Next day, Rluc8-tagged donor and GFP2-tagged acceptor constructs were transfected into cells using a jetPRIME transfection reagent (cat. no. 114-75, Polyplus). Each well was transfected with about 1 μg of plasmid DNA using 3 μl of the jetPRIME reagent. For BRET donor saturation titration experiments, the concentration of donor plasmid (25 ng) was kept constant, and the concentration of acceptor plasmid was increased from 0 to 500 ng for RasG12V BRET pairs and 0–1,000 ng for K-Ras/CaM BRET pairs. The empty pcDNA3.1(-) plasmid was used to top-up the total DNA load per transfection. After 24 h of transfection, cells were treated with compounds or vehicle control (DMSO 0.2% v/v in a growth medium) at the specified concentration for 24 h or the stipulated time period in case of the time-course experiments. The cells from one well of a 12-well plate were collected, washed, and re-plated in PBS (cat. no. 14190-094, Gibco, Thermo Fisher Scientific) on flat bottom, white 96-well plates (cat. no. 236108, Nunc, Thermo Fisher Scientific) as four technical replicates containing 90 μl of cell suspension per well. Then fluorescence intensity followed by BRET readings were carried out on a Clariostar (BMG Labtech) plate reader at 25°C. The fluorescence intensity (RFU) of GFP2 was measured with excitation at 405 ± 10 nm and emission 515 ± 10 nm; it is proportional to the acceptor concentration [acceptor]. BRET readings were taken well by well by adding 10 μl of 100 μM coelenterazine 400a (cat. no. C-320, GoldBio), the Rluc8 substrate to each well (final concentration of 10 μM) using the injector present in the plate reader. Luminescence emission intensities were simultaneously recorded at 410 ± 40 nm (RLU, proportional to [donor]) and 515 ± 15 nm (BRET signal).
The raw BRET ratio was calculated as the BRET signal measured at 515 nm divided by the emission signal measured at 410 nm (RLU). The BRET ratio was obtained by subtracting the raw BRET ratio by a background BRET signal measured for cells expressing only the donor ([Bacart et al., 2008]) as indicated in the formula below:
For BRET donor saturation titration experiments, the BRET ratio was plotted against the [acceptor]/[donor] ratio. Technical repeat data points were averaged, and data points from all biological repeats were collected into one graph for subsequent fitting. The BRET ratio vs. relative expression data were fitted using a binding saturation equation in the Prism (GraphPad) software to obtain BRETmax and BRET50 using the equation y=BRETmax×x/BRET50+x , where x is the relative expression and y is the BRET ratio. BRETmax represents the maximum saturation BRET signal and depends on the structural parameters (distance, orientation) of the BRET complex. BRET50 corresponds to the ratio of the acceptor construct over the donor construct required to attain 50% of the maximum BRET signal and is a measure of the effective relative affinity between the interacting BRET pair ([Marullo and Bouvier, 2007]).
When applying the DSS analysis to nanoclustering-BRET data, we used mevastatin (10 μM) to obtain the asymptote parameter (a) for the maximal inhibition effect, as it prevents the prenylation of Ras proteins, their plasma membrane trafficking, and therefore nanoclustering. Otherwise, normalized BRET ratio data were converted to % inhibition and then subsequently uploaded onto the Breeze site (see text footnote 1).

[4] abbreviates: 72 h, Hs 578T (H-RasG12D) 3D tumorosphere, 3 days treatment, read-out: IC50.
The mark [5] stands for this setting: Hs 578T 3D tumorosphere, log scale, read-out: logIC50 ± SD (converted).
The mark [6] stands for this setting: 72 h, MDA-MB-231 (K-RasG13D) 3D tumorosphere, 3 days treatment, read-out: IC50.
Setting [7] is: MDA-MB-231 3D tumorosphere, log scale, read-out: logIC50 ± SD (converted).

As for `CC(C)=C[C@H]1C[C@H](C)[C@]2(CC[C@]3(C)C[C@H]4[C@H](C(=O)C[C@@]4(C)O)/C(C=O)=C\C[C@H]32)O1` [OphA, Ophiobolin A, reference compound], the IC50 in assay [1] (setting [4]) was 1.8 µM; in assay [1] (setting [5]), 1.78 µM; in assay [2] (setting [6]), 0.3 µM; in assay [2] (setting [7]) it was 0.288 µM. Further, the “KRAS/HRAS mutant cell line DSS3 ratio” value in assay [2] was 3.1. Moreover, the “time-dependent change of K-RasG12V nanoclustering-BRET signal” value in assay [3] (2-h treatment timeframe, OphA 10 μM, mevastatin 10 μM) is given as “no significant BRET change”. The “K-Ras selective reduction of nanoclustering-BRET (K-Ras vs H-Ras)” value in assay [3] (24 h, calmidazolium 20 μM, OphA 2.5 μM, prostratin 10 μM, mevastatin 10 μM, benzazulenones 20 μM) is recorded as 1.2 fold.
As to `CC(C)c1ccc2cc(C(F)(F)F)c(=O)c3c(N4CCCCC4)c(C=O)c(c1)c23` [Compound 1], the IC50 in assay [1] (setting [4]) was 22.5 µM; in assay [1] (setting [5]), 22.4 µM; in assay [2] (setting [6]), 12 µM; in assay [2] (setting [7]) it was 12 µM. Also, the “KRAS/HRAS mutant cell line DSS3 ratio” value in assay [2] was 4.1. In addition, the “reduction in the K-RasG12V BRET signal” value in assay [3] (1 at 50 μM, within 10 min of treatment) came to 38%. Further, the “higher effectivity than calmidazolium in cell biological experiments” value in assay [3] (Calmirasone1 used at 2.5-fold higher concentration, Figures 3F, 7B) was above 25 fold.
